These results are taken from paper PMC9945408 (Food Chemistry: X, 2023).

The target of assay [1] is T1, indoleamine 2,3-dioxygenase 1 (IDO1) (Homo sapiens, UniProt P14902). As to the kind of experiment: % inhibition at […], capillary electrophoresis enzyme assay. It is filed as biochemical.
The target of assay [2] is T1, indoleamine 2,3-dioxygenase 1 (IDO1). As to the kind of experiment: capillary electrophoresis enzyme assay. In kind it is biochemical.

T1 sequence (P14902 whole entry): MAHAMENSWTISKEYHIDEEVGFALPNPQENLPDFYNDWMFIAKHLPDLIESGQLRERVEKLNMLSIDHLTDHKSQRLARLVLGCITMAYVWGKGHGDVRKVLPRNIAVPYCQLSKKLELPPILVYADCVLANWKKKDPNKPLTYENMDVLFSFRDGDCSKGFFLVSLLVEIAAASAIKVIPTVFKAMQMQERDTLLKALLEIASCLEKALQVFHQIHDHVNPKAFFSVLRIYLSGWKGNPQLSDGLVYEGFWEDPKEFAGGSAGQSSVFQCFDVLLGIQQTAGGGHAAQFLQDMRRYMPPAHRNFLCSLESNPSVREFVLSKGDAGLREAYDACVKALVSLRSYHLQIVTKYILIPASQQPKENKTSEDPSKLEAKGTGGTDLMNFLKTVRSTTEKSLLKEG

In general, inhibition refers to the change of the read-out against control, counted positive when it falls. A lower inhibition goes with a weak effect. With `O=C(/C=C/c1ccc(O)c(O)c1)O[C@@H]1C[C@@](O)(C(=O)O)C[C@@H](O)[C@@H]1O` [compound 1, Neochlorogenic acid], at 100 µM the inhibition in assay [1] was 10.9%.

For orientation: IC50 means the point on the concentration scale where inhibition reaches its midpoint. A higher IC50 goes with weaker potency in that assay. In turn, `O=C(/C=C/c1ccc(O)c(O)c1)O[C@@H]1C[C@](O)(C(=O)O)C[C@@H](O)[C@H]1O` [compound 2, Chlorogenic acid] displayed an IC50 in assay [2] of 308 µM.

Consider `O=C(/C=C/c1ccc(O)c(O)c1)O[C@H]1[C@H](O)C[C@](O)(C(=O)O)C[C@H]1O` [compound 3, Cryptochlorogenic acid], for which, in assay [1], 100 µM produced 11.8% inhibition.

Consider `COc1cc(/C=C/C(=O)O[C@@H]2C[C@@](O)(C(=O)O)C[C@@H](O)[C@@H]2O)ccc1O` [compound 4, 3-O-Feruloylquinic acid], for which testing at 100 µM in assay [1] gave an inhibition of 16.4%.

`COc1cc(/C=C/C(=O)O[C@@H]2C[C@](O)(C(=O)O)C[C@@H](O)[C@H]2O)ccc1O` [compound 6, 5-O-Feruloylquinic acid] displayed an inhibition at 100 µM in assay [1] of 12.7%.

`COc1cc(/C=C/C(=O)O)ccc1O` [compound 7, Ferulic acid] returned a half-inhibitory concentration (IC50) in assay [2] of 114 µM.

In assay [1], `O=C(/C=C/c1ccc(O)c(O)c1)O[C@H]1[C@H](O)C[C@](O)(C(=O)O)C[C@H]1OC(=O)/C=C/c1ccc(O)c(O)c1` [compound 8, Isochlorogenic acid B] came in with an inhibition at 100 µM of 19.1%.

Regarding `O=C(/C=C/c1ccc(O)c(O)c1)O[C@@H]1[C@H](O)C[C@@](O)(C(=O)O)C[C@H]1OC(=O)/C=C/c1ccc(O)c(O)c1` [compound 10, Isochlorogenic acid C], the inhibition at 100 µM in assay [1] came out at 10.9%.
